The source made the active and inactive calls. Rule as the data show it, for most assays here: actives have a measured EC50 and inactives only a lower limit.
Key:
[1] = target: T1, Tyrosine-protein phosphatase non-receptor type 7 (Homo sapiens, UniProt P35236); type: functional
T1 sequence (P35236 whole entry): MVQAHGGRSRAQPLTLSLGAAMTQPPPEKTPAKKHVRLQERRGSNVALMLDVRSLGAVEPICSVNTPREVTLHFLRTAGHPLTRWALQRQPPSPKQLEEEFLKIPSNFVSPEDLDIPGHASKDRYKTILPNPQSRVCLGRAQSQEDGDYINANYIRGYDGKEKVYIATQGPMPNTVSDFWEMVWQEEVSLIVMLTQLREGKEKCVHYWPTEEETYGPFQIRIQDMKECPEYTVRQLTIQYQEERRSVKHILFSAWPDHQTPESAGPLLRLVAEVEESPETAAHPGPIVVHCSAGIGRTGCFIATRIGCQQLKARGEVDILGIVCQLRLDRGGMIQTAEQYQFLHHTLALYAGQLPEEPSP

[2] = target: Glyceraldehyde-3-phosphate dehydrogenase (Homo sapiens, UniProt P04406)
Chain of Glyceraldehyde-3-phosphate dehydrogenase (P04406 whole entry): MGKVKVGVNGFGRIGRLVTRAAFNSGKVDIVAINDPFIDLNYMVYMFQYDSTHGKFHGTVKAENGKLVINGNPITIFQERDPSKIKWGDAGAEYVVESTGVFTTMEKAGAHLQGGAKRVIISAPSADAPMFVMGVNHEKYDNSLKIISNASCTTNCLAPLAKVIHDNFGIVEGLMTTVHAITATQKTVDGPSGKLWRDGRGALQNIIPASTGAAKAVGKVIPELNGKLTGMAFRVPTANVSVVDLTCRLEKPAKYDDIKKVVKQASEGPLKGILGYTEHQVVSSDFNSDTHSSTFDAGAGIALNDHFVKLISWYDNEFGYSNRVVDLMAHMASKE

[3] = target: T2, Dual specificity protein phosphatase 6 (Rattus norvegicus, UniProt Q64346)
T2 sequence (Q64346 whole entry): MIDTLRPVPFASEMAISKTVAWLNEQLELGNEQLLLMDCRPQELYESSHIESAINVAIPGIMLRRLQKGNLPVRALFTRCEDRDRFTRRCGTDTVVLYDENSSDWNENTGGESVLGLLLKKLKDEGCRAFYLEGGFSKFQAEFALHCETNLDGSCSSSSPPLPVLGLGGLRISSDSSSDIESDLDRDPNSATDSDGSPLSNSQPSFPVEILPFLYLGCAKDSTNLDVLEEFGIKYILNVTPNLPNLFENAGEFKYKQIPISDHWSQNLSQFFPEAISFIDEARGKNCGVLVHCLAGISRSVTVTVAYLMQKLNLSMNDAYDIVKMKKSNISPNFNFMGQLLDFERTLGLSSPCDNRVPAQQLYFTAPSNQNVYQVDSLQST

[4] = target: T2, Dual specificity protein phosphatase 6; type: functional
HeLa = assay: ATP-based viability loss in HeLa cells – cell-based, CellTiter-Glo luminescence, cherry-pick samples, cytotoxicity control for MITF activator project, dose response (AID 540259); type: functional; conditions: Homo sapiens
[5] = viability of uninfected HEp-2 cells – cell-based, HTS, cytotoxicity control for RSV inhibitor project, dose response (AID 2410); type: functional; conditions: human respiratory syncytial virus
BJ [6] = assay: BJ-TERT fibroblast viability loss – cell-based, RAS-independent, luminescence, dose response (AID 1933); type: functional; conditions: Homo sapiens
BJ [7] = assay: cells; type: functional, cell-based; conditions: Homo sapiens
BJ [8] = assay: BJ-TERT-LT-ST fibroblast viability loss – cell-based, RAS-independent, luminescence, dose response (AID 1935); type: functional; conditions: Homo sapiens;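 also: BJ fibroblasts immortalized with TERT plus LT and ST oncogenes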
[9] = DRD fibroblast viability loss – cell-based, non-viral oncogenic, luminescence, dose response (AID 1934); type: functional; conditions: Homo sapiens
BJ [10] = assay: growth inhibition of engineered Ras-driven BJ cells – cell-based, alamar blue fluorescence, cherrypicked samples, dose response (AID 2631); type: functional; conditions: Homo sapiens;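 also: confirmatory dose-response assay in RAS-dependent BJ fibroblasts engineered with TERT, LT and ST, with cytotoxicity read by fluorescence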
Escherichia coli [11] = assay: microbe, parasite or virus in culture
Escherichia coli [12] = assay: microbe, parasite or virus in culture; remark: listed apart in the source
[13] = NIH-3T3 fibroblast cytotoxicity, dose response, cytotoxicity control, cell-based, fluorescence, Alamar Blue, secondary assay (AID 2327); type: functional;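 also: NIH-3T3 mouse fibroblasts cultured with fluconazole at 8 µg/mL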
[14] = fluconazole-exposed Candida albicans growth modulators – fluorescence, retest, confirmation (AID 2467); type: functional, cell-based
[15] = target: T3, Serine/threonine-protein phosphatase (Candida dubliniensis (strain CD36 / CBS 7987 / NCPF 3949 / NRRLY-17841) (Yeast), UniProt B9W6M3); assay: blockers of CaCl2-induced CDRE-lacZ signaling – S. cerevisiae, luminescence, secondary, dose response (AID 2388); type: functional, cell-based;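 also: yeast reporter cells carrying a calcineurin-responsive lacZ construct stimulated with calcium chloride; luminescent beta-galactosidase reporter signal in whole cells rather than isolated phosphatase activity; potency for inhibition where a drop in reporter signal means calcineurin blockade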
T3 sequence (B9W6M3 whole entry): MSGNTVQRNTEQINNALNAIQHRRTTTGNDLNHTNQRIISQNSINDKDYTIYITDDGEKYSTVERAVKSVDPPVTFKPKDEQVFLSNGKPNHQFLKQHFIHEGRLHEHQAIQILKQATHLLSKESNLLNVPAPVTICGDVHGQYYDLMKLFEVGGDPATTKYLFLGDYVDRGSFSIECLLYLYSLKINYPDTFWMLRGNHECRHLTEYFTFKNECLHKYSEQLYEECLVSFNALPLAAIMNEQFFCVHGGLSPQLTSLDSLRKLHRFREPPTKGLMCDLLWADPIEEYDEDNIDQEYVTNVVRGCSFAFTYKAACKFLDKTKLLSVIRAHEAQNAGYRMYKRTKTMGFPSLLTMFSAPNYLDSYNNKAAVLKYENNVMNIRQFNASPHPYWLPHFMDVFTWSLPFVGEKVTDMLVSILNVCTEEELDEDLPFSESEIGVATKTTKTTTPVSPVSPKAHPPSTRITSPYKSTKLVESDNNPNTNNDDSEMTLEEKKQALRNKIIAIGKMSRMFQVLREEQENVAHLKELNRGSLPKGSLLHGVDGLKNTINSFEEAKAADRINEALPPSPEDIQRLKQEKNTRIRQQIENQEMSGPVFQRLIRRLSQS

[16] = target: ATP-dependent molecular chaperone HSP82 (Candida albicans (strain WO-1) (Yeast), UniProt C4YTQ8); assay: steroid-induced GRE reporter decrease in yeast – S. cerevisiae, luminescence, Hsp90 inhibitor project, dose response (AID 2400); type: functional, cell-based;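 also: beta-galactosidase luminescence from glucocorticoid response element reporter as proxy for Hsp90 function; inhibitor potency where signal loss means Hsp90 inhibition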
Chain of ATP-dependent molecular chaperone HSP82 (C4YTQ8 whole entry): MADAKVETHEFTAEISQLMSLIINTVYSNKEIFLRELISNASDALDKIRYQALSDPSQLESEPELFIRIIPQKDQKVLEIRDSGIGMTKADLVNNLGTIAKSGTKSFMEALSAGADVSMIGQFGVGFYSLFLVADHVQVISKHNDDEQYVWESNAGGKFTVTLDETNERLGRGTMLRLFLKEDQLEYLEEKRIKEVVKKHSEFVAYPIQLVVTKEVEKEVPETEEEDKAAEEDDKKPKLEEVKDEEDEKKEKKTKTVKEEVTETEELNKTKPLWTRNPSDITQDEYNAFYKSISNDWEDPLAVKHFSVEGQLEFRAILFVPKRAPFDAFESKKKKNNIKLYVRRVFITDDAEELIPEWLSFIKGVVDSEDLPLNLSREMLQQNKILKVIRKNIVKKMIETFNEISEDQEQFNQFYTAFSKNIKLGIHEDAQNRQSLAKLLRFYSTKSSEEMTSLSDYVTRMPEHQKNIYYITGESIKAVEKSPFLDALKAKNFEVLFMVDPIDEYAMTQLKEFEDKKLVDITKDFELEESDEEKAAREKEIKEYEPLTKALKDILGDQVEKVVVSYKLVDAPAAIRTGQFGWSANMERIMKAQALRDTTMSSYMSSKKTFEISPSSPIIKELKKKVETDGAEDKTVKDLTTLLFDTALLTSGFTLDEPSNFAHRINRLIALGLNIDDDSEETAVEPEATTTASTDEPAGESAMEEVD

[17] = luciferase reporter signal suppression in cells – H4 neuroglioma cells, luminescence, dose response (AID 1990); type: functional, cell-based
[18] = Luminescence Cell-Based Dose Response HTS to Identify Inhibitors of 5'UTR Stem-Loop Driven Prion Protein mRNA Translation in H4 Neuroglioblastoma Cells. [Related pubchem assays: 1827 (Project Summary), 1813 (Primary HTS)]; type: functional
[19] = alpha-synuclein stem-loop luciferase translation blockers – H4 neuroglioma cells, luminescence, confirmation (AID 1988); type: functional, cell-based
[20] = microbe, parasite or virus in culture; type: functional; conditions: Mycobacterium tuberculosis
[21] = HEK-293T viability loss after treatment – luminescence, T-cell screen hits, cytotoxicity control for TCR NF-kB inhibitor project, dose response (AID 489026); type: functional, cell-based;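 also: cells exposed to compound about 14 hours before the viability readout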

Structure (SMILES): CCn1c(=O)n(Cc2ccccc2C)c(=O)n([C@@H](Cc2ccccc2)C(=O)O)c1=O
- IC50 [1]: > 100 µM (not active)
- IC50 [2]: > 100 µM (not active)
- IC50 [3]: > 100 µM (inactive)
- IC50 [4]: > 100 µM (inactive)

Structure (SMILES): CN(/N=C/c1ccc2c(c1)OCO2)c1ccccc1
- AC50 (HeLa): 98.3 µM (active)

Structure (SMILES): C(=N\Nc1nc2ccccc2[nH]1)/c1ccc2ncccc2c1
- CC50 [5]: 2.99 µM (active)
- EC50 (BJ [6]): 10.8 µM (active)
- EC50 (BJ [7]): 2.75 µM (inconclusive)
- EC50 (BJ [8]): 30.7 µM (active)
- EC50 [9]: 2.32 µM (inconclusive)
- EC50 (BJ [10]): > 133 µM (inactive)

Structure (SMILES): O=C(CSCc1ccc(Cl)cc1)Nc1ccc(-c2nnc(-c3ccccc3)o2)cc1
- AC50 (Escherichia coli [11]): 23.9 µM (active)
- AC50 (Escherichia coli [12]): 58.8 µM (active)

Structure (SMILES): C=CCN(CC=C)Cc1c(O)ccc2c(=O)c(-c3ccccc3)coc12
- EC50 [13]: 131 µM (active)
- EC50 [14]: < 0.03 µM (active)
- EC50 [15]: > 180 µM (inactive)
- EC50 [16]: > 150 µM (inactive)

Structure (SMILES): CCCCOc1ccc(Br)cc1/C(C)=N/NC1=NCCN1
- EC50 [17]: 4.71 µM (inconclusive)
- EC50 (BJ [6]): 3.18 µM (inconclusive)
- EC50 [18]: 4.92 µM (active)
- EC50 [19]: 3.86 µM (active)
- EC50 (BJ [7]): 8.49 µM (inconclusive)
- CC50 [20]: 8.31 µM (active)
- EC50 (BJ [8]): 6.41 µM (inconclusive)
- EC50 [9]: 6.08 µM (active)
- IC50 [21]: 46.8 µM (inactive)
- EC50 (BJ [10]): 0.619 µM (inconclusive)
